The test system of data set [1] is Scedosporium prolificans IHEM21157. Put plainly: Antifungal activity in vitro (resazurin susceptibility screen), Inf. I. The class given is cell-based. The conditions noted are these: Lomentospora prolificans, 37 °C, 48 hours, resa time 17 hours, read-out: Inf. I pIC50 (converted). The procedure:
(§1) The standard susceptibility screen was performed in 96-well plates (U-bottom, Greiner Bio-One). […] These serial dilutions (10 n1) were then spotted onto test-plates that could be stored in the dark at 4° C. for a maximum period of 2 weeks. […] The different fungal species/isolates (Table 3a) were cryopreserved and 1/1000 diluted in medium just prior to use. A standard inoculum of 200 μl containing 10^3 colony-forming unit (cfu) was then added to each well. A positive control (100% growth=fungal culture without antifungal) and a negative control (0% growth ═RPMI-MOPS medium) were included on each plate. […] [table]
In general terms: Resazurin is reduced to fluorescent resorufin, in cell work by metabolically active cells.

The nature of data set [2]: Liver metabolic stability assay, hLM. The class given is in vitro ADME, human. The conditions noted are these: human liver microsomes, 1 mg protein/ml, 5 μM test compound, 15 min, 37 °C.
The test system of data set [3] is Sporothrix schenkii B62482. Description: Antifungal activity in vitro (resazurin susceptibility screen), Inf. A. The class given is cell-based. The following applies: Sporothrix, B62482, Sporothrix schenkii B62482; 27 °C, 4 days, resa time 24 hours; highest in-test concentration 64 μM; read-out: Inf. A pIC50 (converted). Summed up:
(§2)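 Growth was normalised between a fungal culture lacking antifungal (100%) and RPMI-MOPS medium only (0%), both on every plate. Wells held pre-spotted serial dilutions of compound and received 10^3 cfu of freshly diluted (1/1000) cryopreserved fungus.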

For data set [4], the system named is Aspergillus fumigatus B42928. Description: Antifungal activity in vitro (resazurin susceptibility screen), Inf. E. The class given is cell-based. The following applies: Aspergillus fumigatus B42928; 27 °C, 48 hours, resa time 17 hours; read-out: Inf. E pIC50 (converted). An outline of the steps:
as §2

Data set [5] concerns Mucor circinelloides IHEM21105. Put plainly: Antifungal activity in vitro (resazurin susceptibility screen), Inf. L. The data set is classed as cell-based. The conditions noted are these: 27 °C, 48 hours, resa time 17 hours, read-out: Inf. L pIC50 (converted). As for the experimental part: as §1
Data set [6] has as its system Rhizomucor miehei IHEM13391. Description: Antifungal activity in vitro (resazurin susceptibility screen), Inf. K. The conditions noted are these: 37 °C, 48 hours, resa time 17 hours, read-out: Inf. K pIC50 (converted). The data set is classed as cell-based. The procedure: as §1
Data set [7] deals with Trichophyton rubrum B68183. Put plainly: Antifungal activity in vitro (resazurin susceptibility screen), Inf. C. The class given is cell-based. The conditions noted are these: Trichophyton rubrum B68183; 27 °C, 7 days, resa time 24 hours; read-out: Inf. C pIC50 (converted). Summed up: as §2
Data set [8] is described as follows: Liver metabolic stability assay, gpLM. The data set is classed as in vitro ADME, guinea pig. The conditions noted are these: guinea pig microsomes, 1 mg protein/ml, 5 μM test compound, 15 min, 37 °C.
For data set [9], the system named is Cryptococcus neoformans B66663. Put plainly: Antifungal activity in vitro (resazurin susceptibility screen), Inf. F. The data set is classed as cell-based. The conditions noted are these: Cryptococcus neoformans, B66663, Cryptococcus neoformans B66663; 37 °C, 24 hours, resa time 4 hours; read-out: Inf. F pIC50 (converted). An outline of the steps:
as §2

The next data set has as its system Rhizopus oryzae IHEM5223. Put plainly: Antifungal activity in vitro (resazurin susceptibility screen), Inf. J. The class given is cell-based. The following applies: Rhizopus arrhizus, 37 °C, 24 hours, resa time 6 hours, read-out: Inf. J pIC50 (converted). As for the experimental part: as §1
Another data set concerns the target T1, CYP1A2 (Homo sapiens, UniProt P05177).
T1 sequence (P05177 1-516): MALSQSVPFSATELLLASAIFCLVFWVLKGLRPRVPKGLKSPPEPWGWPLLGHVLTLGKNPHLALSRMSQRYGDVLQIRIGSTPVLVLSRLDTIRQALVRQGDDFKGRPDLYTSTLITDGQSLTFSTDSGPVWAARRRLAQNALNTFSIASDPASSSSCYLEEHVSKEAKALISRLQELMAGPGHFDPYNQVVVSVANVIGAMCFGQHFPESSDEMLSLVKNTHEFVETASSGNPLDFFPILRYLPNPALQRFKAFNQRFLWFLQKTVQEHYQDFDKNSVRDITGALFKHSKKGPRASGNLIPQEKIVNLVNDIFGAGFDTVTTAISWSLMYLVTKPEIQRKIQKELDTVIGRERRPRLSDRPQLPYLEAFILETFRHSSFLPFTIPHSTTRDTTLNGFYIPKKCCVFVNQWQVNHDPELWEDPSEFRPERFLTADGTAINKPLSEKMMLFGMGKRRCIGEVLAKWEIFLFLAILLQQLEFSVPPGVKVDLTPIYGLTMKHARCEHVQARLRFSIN
Put plainly: Human liver microsomal cytochrome P450 inhibition assay, Protocol B. The following applies: liver microsomes, pH 7.4, probe resorufin, at 30 μM. The class given is in vitro ADME. As for the experimental part: (§3) The samples are centrifuged for 10 min at 4° C. at 4000 rpm and the supernatant is analyzed. Analysis for CYP1A2 with resorufin was performed by fluorescence while the CY2D6 inhibition potential was assessed using LC-MS detection.

The next data set addresses CYP2D6 (Homo sapiens, UniProt P10635). Described as above. The data set is classed as in vitro ADME. The conditions noted are these: pH 7.4; at 30 μM; solvent condition B (0.30% DMSO+0.68% acetonitrile); human liver microsomes; probe dextromethorphan. As for the experimental part:
as §3

Data set [10] concerns Scedosporium apiospermum IHEM3817. Description: Antifungal activity in vitro (resazurin susceptibility screen), Inf. H. The class given is cell-based. The conditions noted are these: 37 °C, 48 hours, resa time 17 hours, read-out: Inf. H pIC50 (converted). As for the experimental part:
as §1

The subject of another data set is Microsporum canis B68128. Put plainly: Antifungal activity in vitro (resazurin susceptibility screen), Inf. B. The data set is classed as cell-based. The conditions noted are these: Microsporum canis, B68128, Microsporum canis B68128; 27 °C, 9 days, resa time 24 hours; read-out: Inf. B pIC50 (converted). An outline of the steps:
(§4)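 Each well was inoculated with 10^3 cfu of fungus onto dried, pre-spotted compound serial dilutions in RPMI-MOPS medium, with fungal growth read by resazurin. Growth was referenced to drug-free culture (100%) and medium-only (0%) controls on each plate.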

The test system of data set [11] is Candida parapsilosis B66126. Description: Antifungal activity in vitro (resazurin susceptibility screen), Inf. D. The data set is classed as cell-based. The conditions noted are these: Lodderomyces parapsilosis; Candida parapsilosis B66126; 37 °C, 24 hours, resa time 4 hours; read-out: Inf. D pIC50 (converted). An outline of the steps:
as §4

For data set [12], the system named is Trichophyton mentagrophytes B70554. Description: Antifungal activity in vitro (resazurin susceptibility screen), Inf. G. The following applies: Trichophyton mentagrophytes, B70554, Trichophyton mentagrophytes B70554; 27 °C, 7 days, resa time 24 hours; read-out: Inf. G pIC50 (converted). The data set is classed as cell-based. Summed up: as §4

CYP2D6, sequence (P10635 whole entry): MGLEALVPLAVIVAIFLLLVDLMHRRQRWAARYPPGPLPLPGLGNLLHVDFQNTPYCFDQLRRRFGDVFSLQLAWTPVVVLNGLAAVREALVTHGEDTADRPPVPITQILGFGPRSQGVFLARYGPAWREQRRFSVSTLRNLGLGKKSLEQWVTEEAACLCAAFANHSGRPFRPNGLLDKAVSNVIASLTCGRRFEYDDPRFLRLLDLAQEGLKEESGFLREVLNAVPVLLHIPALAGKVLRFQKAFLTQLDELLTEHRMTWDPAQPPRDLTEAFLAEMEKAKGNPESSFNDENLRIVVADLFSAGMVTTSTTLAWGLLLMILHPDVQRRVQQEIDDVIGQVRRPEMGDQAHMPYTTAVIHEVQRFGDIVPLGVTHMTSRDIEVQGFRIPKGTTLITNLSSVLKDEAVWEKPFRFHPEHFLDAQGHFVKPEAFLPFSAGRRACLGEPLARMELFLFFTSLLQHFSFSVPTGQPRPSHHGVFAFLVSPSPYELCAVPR

By melting point is commonly meant the temperature, or range, at which the solid turns liquid. Usually inhibition stands for how much of the control response was suppressed. A lower inhibition goes with little suppression. The compound `CC(=O)c1ccc(C2=NCc3ccc(Cl)cc3-n3cccc32)cc1` [Compound 18, 1-[4-(9-chloro-6H-pyrrolo[1,2-a][1,4]benzodiazepin-4-yl)phenyl]-ethanone] yielded a melting point of 114.4 to 115.7 °C. Moreover, the IC50 in data set [1] was 12.6 µM. Also, in data set [2], the “%-compound metabolised_Met_hLM” value is 17%. Further, in [3], the IC50 was 7.94 µM. The IC50 in data set [4] is 0.501 µM. In [5], the IC50 was greater than 63.1 µM. For the same compound, the IC50 in data set [6] is greater than 63.1 µM. The IC50 in data set [7] is 0.316 µM. Further, in data set [8], the “%-compound metabolised Met_gpLM” value was found to be 36%. The IC50 in data set [9] is 1.58 µM. Besides, in the data set with Rhizopus oryzae IHEM5223, the IC50 was greater than 63.1 µM. The compound also yielded an inhibition at 10 min, 30 µM at CYP1A2 (solvent condition A (0.15% DMSO+[…] acetonitrile)) of 20 to 25%. The compound also showed an inhibition at 10 min, 30 µM at CYP1A2 (solvent condition B (0.30% DMSO+0.68% acetonitrile)) of 25 to 35%. On CYP2D6, this compound yielded an inhibition at 10 min, 30 µM of 40 to 45%. For the same compound, the IC50 in [10] was 39.8 µM. The IC50 in the data set on Microsporum canis B68128 is 2 µM. The IC50 in data set [11] is 63.1 µM. Besides, in data set [12], the IC50 is 1 µM.
